In patent US9616129B2, “Compositions and methods for potentiating immune response, enhancing immunotherapy, and increasing vaccine potency” (Nitor Therapeutics, priority 2013, dated 2017):

What was measured:
human TLR9 = biological target: T1, human TLR9 (Homo sapiens, UniProt Q9NR96); assay: TLR ligand screening, NF-κB SEAP reporter in HEK293 cells expressing TLR9; type: cell-based; settings: one concentration: NTR001 10 uM, Inosine 100 uM; FIG. 2
T1 construct: expressed in transfected cells; host or cells: HEK293
T1 sequence (Q9NR96 26-1032): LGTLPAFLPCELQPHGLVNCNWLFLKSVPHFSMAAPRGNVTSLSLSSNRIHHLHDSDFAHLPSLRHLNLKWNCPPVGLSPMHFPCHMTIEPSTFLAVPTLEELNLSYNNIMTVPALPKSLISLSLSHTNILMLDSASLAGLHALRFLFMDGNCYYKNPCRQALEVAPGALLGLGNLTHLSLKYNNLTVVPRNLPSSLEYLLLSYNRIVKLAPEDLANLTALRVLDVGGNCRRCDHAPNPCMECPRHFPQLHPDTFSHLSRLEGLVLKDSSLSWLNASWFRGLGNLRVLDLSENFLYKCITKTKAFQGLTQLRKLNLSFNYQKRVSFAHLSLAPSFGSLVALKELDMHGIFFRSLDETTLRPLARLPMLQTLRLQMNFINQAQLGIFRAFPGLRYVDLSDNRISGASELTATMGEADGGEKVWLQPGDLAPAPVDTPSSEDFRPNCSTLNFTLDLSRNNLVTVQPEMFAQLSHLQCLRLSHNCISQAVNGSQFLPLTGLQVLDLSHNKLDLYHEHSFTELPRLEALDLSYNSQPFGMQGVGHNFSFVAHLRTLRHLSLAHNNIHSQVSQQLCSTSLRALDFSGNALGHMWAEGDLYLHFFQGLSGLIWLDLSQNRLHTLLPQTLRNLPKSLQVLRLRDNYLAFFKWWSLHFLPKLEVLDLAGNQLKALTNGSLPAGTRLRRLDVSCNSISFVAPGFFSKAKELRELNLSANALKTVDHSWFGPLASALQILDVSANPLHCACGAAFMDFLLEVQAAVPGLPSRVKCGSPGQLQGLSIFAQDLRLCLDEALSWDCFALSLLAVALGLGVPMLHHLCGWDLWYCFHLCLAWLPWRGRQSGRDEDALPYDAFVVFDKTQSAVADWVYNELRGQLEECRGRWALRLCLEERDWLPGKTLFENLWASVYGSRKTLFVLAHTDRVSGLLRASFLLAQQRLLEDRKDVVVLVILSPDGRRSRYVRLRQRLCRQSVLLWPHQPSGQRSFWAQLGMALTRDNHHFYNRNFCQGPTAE
Protocol: (§1) TLR stimulation is tested by assessing NF-κB activation in HEK293 cells expressing a given TLR. The Secreted Embryonic Alkaline Phosphatase (SEAP) reporter is under the control of a promoter inducible by the transcription factor NF-κB. This reporter gene allows the monitoring of signaling through the TLR, based on the activation of NF-κB. The compounds are evaluated at one concentration and compared to control ligands. This step is performed in triplicate.

human TLR5 = biological target: T2, human TLR5 (Homo sapiens, UniProt O60602); assay: TLR ligand screening, NF-κB SEAP reporter in HEK293 cells expressing TLR5; type: cell-based; settings: one concentration: NTR001 10 uM, Inosine 100 uM; FIG. 2
T2 construct: expressed in transfected cells; host or cells: HEK293
Protocol: as §1

human TLR3 = biological target: T3, human TLR3 (Homo sapiens, UniProt O15455); assay: TLR ligand screening, NF-κB SEAP reporter in HEK293 cells expressing TLR3; type: cell-based; settings: one concentration: NTR001 10 uM, Inosine 100 uM; FIG. 2
T3 construct: expressed in transfected cells; host or cells: HEK293
T3 sequence (O15455 24-904): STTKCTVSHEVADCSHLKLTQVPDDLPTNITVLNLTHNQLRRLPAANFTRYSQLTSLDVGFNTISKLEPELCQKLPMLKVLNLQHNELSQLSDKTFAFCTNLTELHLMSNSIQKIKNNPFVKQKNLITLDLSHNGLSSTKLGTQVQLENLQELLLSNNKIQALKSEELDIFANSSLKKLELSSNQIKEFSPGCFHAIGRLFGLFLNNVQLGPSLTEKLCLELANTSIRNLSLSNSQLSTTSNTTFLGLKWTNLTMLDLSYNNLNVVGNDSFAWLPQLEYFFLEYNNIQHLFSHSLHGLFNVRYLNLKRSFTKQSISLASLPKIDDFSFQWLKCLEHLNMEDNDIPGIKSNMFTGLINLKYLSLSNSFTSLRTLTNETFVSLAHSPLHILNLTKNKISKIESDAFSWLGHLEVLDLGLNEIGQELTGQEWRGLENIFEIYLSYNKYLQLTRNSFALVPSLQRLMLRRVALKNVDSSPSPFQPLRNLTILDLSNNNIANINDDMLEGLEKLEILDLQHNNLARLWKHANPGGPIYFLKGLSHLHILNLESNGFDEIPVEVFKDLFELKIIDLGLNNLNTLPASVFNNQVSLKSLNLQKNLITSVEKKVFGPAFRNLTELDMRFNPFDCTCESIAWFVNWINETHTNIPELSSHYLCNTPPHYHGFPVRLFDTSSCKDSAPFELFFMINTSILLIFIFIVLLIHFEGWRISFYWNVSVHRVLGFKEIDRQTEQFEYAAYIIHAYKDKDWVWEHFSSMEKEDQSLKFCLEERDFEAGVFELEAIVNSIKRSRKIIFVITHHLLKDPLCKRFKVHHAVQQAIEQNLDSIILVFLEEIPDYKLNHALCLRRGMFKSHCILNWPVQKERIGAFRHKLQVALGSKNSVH
Protocol: as §1

human TLR4 = biological target: T4, human TLR4 (Homo sapiens, UniProt O00206); assay: TLR ligand screening, NF-κB SEAP reporter in HEK293 cells expressing TLR4; type: cell-based; settings: one concentration: Guanosine 100 uM, NTR001 10 uM, Inosine 100 uM; FIG. 2
T4 construct: expressed in transfected cells; host or cells: HEK293
Protocol: as §1

B16 tumors = assay: Syngeneic mouse melanoma model; type: in vivo, C57BL/6 mice
Protocol: Cancer cells were injected subcutaneously in right flank of each mouse, 1×10^4 cells in 0.1 ml PBS with 20% Matrigel. Treatment with the NTR001 was initiated on day 6 after injection of tumor cells. Tumor volume and survival were recorded every 3-4 days.

tetanus toxoid vaccine = assay: Tetanus toxoid vaccine efficacy study (adjuvant) in mice; type: in vivo; settings: compared to vehicle treated group
Protocol: Tetanus toxoid (TT) was used to vaccinate mice thrice, two weeks apart. Mice were treated by oral administration of compounds NTR001 and NTR002 and serum was collected at various time points for antibody titer and interferon-g analysis. Mice in Groups 2-6 (Table 2) are vaccinated subcutaneously with 0.1 ml tetanus toxoid vaccine on DAYS 0, 14 and 28. Mice in Group 1 (Table 1) received no vaccine. Antibody titers for DAYS 38 are determined by ELISA using tetanus toxoid coated microtiter plates and anti-mouse conjugate. Sera from DAY 30 are assayed by ELISA for interferon-g.

[1] = test system: L. monocytogenes (ATCC Strain35152, hemolytic substrain); assay: Mouse model of L. monocytogenes infection; type: in vivo; settings: Balb/c mice infected i.v. with 1×10^6 CFU; treatments per Table 3; FIGS. 7 and 9

T4 sequence (O00206 24-839): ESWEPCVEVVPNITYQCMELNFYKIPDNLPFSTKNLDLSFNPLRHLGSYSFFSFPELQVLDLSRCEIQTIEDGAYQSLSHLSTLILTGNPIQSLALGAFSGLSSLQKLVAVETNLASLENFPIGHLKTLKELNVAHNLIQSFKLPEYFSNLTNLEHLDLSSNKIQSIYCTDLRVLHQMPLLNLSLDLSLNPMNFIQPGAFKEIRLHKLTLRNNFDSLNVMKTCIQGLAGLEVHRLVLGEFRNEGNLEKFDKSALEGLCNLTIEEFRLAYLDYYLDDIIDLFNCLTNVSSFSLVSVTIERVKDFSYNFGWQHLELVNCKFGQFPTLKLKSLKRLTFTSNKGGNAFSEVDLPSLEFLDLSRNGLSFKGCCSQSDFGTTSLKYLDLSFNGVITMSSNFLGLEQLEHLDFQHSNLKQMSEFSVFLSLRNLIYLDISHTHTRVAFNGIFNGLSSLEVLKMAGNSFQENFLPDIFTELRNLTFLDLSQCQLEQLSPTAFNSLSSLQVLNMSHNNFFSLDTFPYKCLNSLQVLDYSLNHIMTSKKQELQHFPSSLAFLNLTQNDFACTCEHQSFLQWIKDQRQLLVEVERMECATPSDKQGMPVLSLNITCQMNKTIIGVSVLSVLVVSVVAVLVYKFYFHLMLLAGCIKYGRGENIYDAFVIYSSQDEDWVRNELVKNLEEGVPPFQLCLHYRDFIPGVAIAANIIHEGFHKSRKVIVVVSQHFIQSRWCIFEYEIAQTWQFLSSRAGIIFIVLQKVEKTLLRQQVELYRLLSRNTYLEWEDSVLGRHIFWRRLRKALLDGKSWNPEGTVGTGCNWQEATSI
T4 sequence (Q9Y6Y9 17-160 partner limits assumed): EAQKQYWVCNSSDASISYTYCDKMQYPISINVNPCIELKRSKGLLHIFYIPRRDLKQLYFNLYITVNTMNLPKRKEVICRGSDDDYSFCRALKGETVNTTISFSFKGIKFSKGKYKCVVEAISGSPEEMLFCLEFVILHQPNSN
T2 sequence (O60602 21-858): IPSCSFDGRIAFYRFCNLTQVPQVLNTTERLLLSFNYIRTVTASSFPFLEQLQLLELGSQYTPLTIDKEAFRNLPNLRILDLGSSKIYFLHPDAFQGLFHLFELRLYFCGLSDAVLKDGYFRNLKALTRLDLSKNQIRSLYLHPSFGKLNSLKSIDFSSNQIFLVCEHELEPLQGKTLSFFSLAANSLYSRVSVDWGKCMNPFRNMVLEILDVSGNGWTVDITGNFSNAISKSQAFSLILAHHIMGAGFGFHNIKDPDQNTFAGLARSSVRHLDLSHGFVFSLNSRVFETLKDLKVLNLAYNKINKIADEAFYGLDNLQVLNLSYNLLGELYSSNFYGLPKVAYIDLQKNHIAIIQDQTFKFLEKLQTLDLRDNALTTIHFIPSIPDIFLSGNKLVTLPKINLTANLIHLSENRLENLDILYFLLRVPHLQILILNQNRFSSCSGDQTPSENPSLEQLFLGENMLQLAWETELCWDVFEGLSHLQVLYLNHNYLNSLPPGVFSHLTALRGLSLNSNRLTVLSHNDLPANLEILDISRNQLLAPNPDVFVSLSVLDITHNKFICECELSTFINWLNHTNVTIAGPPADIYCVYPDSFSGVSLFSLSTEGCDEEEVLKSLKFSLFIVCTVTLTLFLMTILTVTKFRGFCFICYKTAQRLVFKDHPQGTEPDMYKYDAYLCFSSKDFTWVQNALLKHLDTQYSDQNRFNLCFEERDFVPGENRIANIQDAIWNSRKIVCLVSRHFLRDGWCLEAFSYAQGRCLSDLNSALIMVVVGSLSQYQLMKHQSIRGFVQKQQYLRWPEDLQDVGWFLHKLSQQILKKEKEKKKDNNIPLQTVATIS

| Compound | stimulatory effect on human TLR9 (NF-κB activation) (human TLR9) | stimulatory effect on human TLR5 (NF-κB activation) (human TLR5) | stimulatory effect on human TLR3 (NF-κB activation) (human TLR3) | stimulatory effect on human TLR4 (NF-κB activation) (human TLR4) | tumor volume (B16 tumors; B16 melanoma, C57BL/6 mice, treatment from day 6, FIG. 5) | survival (B16 tumors; NTR001 as single agent (30 mg/kg PO week on/off or 5 mg/kg drinking water), FIG. 6) | serum interferon-g (tetanus toxoid vaccine; day 30, ELISA, high dose group 60 mg/kg p.o., FIG. 4) | serum tetanus toxoid antibody titers (tetanus toxoid vaccine; day 38, ELISA, p.o. 30 mg/kg (6 days of treatment) and 60 mg/kg (3 days of treatment), FIG. 3) | weight loss [1] |
| --- | --- | --- | --- | --- | --- | --- | --- | --- | --- |
| OC[C@H]1O[C@@H](n2cnc3c(O)ncnc32)[C@H](O)[C@@H]1O [Inosine] | do not exhibit a stimulatory effect | do not exhibit a stimulatory effect | do not exhibit a stimulatory effect | do not exhibit a stimulatory effect | – | – | – | – | – |
| O=c1[nH]cnc2c([C@@H]3N[C@H](CO)[C@@H](O)[C@H]3O)c[nH]c12 [NTR001, 7-[(2S,3S,4R,5R)-3,4-dihydroxy-5-(hydroxymethyl)-2-pyrrolidinyl]-1,5-dihydro-4H-pyrrolo[3,2-d]pyrimidin-4-one] | do not exhibit a stimulatory effect | do not exhibit a stimulatory effect | do not exhibit a stimulatory effect | do not exhibit a stimulatory effect | significant decrease | 0-20% | elevated | significantly elevated | significant decrease |
